Our source for the RP-LC retention time values is the METLIN SMRT retention time set (Domingo-Almenara et al. 2019).

The nature of the data set: gradient 5% acetonitrile 3 min, to 50% in 2 min, to 85% in 15 min, held 3 min, 100 µL/min. The note with it: column: Zorbax Extend-C18 2.1 x 50 mm; eluents: water / acetonitrile, 0.1% formic acid. In outline: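 In both positive and negative ionization mode, a quadrupole time-of-flight mass spectrometer coupled to HPLC analyzed pure standards run in mixtures of ~100 molecules. The Zorbax Extend-C18 column (2.1 × 50 mm, 1.8 μm) was operated at 100 μL/min with water and acetonitrile, each containing 0.1% formic acid. The dead volume was 40 μL and the dwell volume 900 μL. Retention time came from adduct peaks that were computationally picked and individually inspected by hand.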
`Cn1cc(S(=O)(=O)N2CCCCC2)cc1C(=O)Nc1ccc2c(c1)OCCO2` returned an RP-LC retention time of 917 s.

`CCC(C(=O)NCc1ccc(C)o1)n1nc(C)c2c(C)n(-c3ccccc3)nc2c1=O` (centres undefined) returned an RP-LC retention time of 862 s. The compound `Cc1c(N2CCC(C(=O)NCC3CCCO3)CC2)c(=O)n(C)c(=O)n1-c1ccccc1` (centres undefined) had an RP-LC retention time of 691 s. With `COc1ccc(Cl)cc1C(=O)N1CCN(c2cc(C)nc(N3CCOCC3)n2)CC1`, the RP-LC retention time is 644 s. Compound `CC(C)(C)c1ccc(C(=O)Nc2cc(-c3ccccn3)no2)cc1` registered an RP-LC retention time of 1020 s. The figure for `COc1ccc(N2C(=O)CN(Cc3ccccc3C)[C@H]3CS(=O)(=O)C[C@H]32)cc1` is 812 s; for `O=C(CCC1CCCC1)Nc1nc(-c2ccccc2)cs1` it is 1180 s. In the case of `CCCn1cc(S(=O)(=O)NCc2cccc(Cl)c2)c2cccnc21`, the RP-LC retention time was 950 s. Regarding `CCOC(=O)c1c(C)[nH]c(C(=O)N2CCC(CC(=O)NCc3ccccc3)CC2)c1C`, the RP-LC retention time worked out at 762 s.

Take `O=S(=O)(c1ccc(-c2cc(C(F)(F)F)on2)s1)N1CCN(c2ccccn2)CC1`: the RP-LC retention time is 883 s. In turn, `Cc1ccc(-c2nnc(SCC(=O)Nc3cc(C)ccc3C)o2)cc1` had an RP-LC retention time of 802 s. Compound `CSc1cccc(NC(=O)N2CCN(c3cnn4c(C5CC5)nnc4c3)CC2)c1` displayed an RP-LC retention time of 694 s.

Compound `COc1ccc(-c2nc(C)c(CCNS(=O)(=O)c3ccc4c(c3)OCCO4)s2)cc1` had an RP-LC retention time of 831 s.

`Cc1cc(NC(=O)N2CCC(n3cnc4cccnc43)CC2)ccc1Br` displayed an RP-LC retention time of 684 s. The figure for `COc1ccccc1-c1nc(Cn2ccnc2C)no1` is 584 s; for `O=C(NN1CCCCC1)NN1CCCCC1` it is 626 s. In turn, `Cc1ccc(CSc2nccc3c2ccn3CC(=O)NCCN2CCN(C)CC2)cc1` registered an RP-LC retention time of 589 s. In turn, `CC(C)NC(=O)C1CCCN(c2nc3ncn(CC(=O)N4CCc5ccccc5C4)c(=O)c3s2)C1` (centres undefined) showed an RP-LC retention time of 723 s. In turn, `CCCn1cnc2ccc(-c3noc(-c4cccc(F)c4)n3)cc21` showed an RP-LC retention time of 873 s. The figure for `CCOc1ccc(C(=O)N2CCC(n3c(-c4ccoc4)nc4cccnc43)C2)cc1` (centres undefined) is 756 s; for `O=C1NCCN2CC3(CCN(C(=O)Nc4ccccc4)CC3)CC12` (centres undefined) it is 570 s; for `Cc1noc(-c2ccccc2OC2CCNC2)n1` (centres undefined) it is 590 s. As to `COc1ccc(CNC(=O)COc2ccc(NC(=O)C3CC3)cn2)cc1OC`, the RP-LC retention time was 666 s.

In the case of `O=C(NCC1COc2ccccc2O1)C(=O)c1c[nH]c2ccccc12` (centres undefined), the RP-LC retention time turned out to be 920 s. `O=C(Cn1cnc2ccccc21)Nc1nc2c(s1)C(=O)CCC2` had an RP-LC retention time of 558 s. The figure for `CCN(CCO)CCCOc1ccc2c(Nc3cc(CC(=O)Nc4cccc(F)c4)[nH]n3)ncnc2c1` is 611 s. For `Cc1cc(C(=O)Nc2nc(-c3ccc(Cl)cc3)c(C)s2)no1`, the RP-LC retention time was 1110 s. Compound `COc1ccc(Cn2c(=O)n(C(C)C)c(=O)c3oc4ccccc4c32)cc1` came in with an RP-LC retention time of 976 s. In the case of `COc1ccc(-c2noc(-c3nnn(Cc4nc(-c5ccccc5OC)oc4C)c3C)n2)cc1OC`, the RP-LC retention time came out at 1000 s. Regarding `CCC(C)NC(=O)Cn1cnc2nc(N3CCCC(C(=O)NC(C)C)C3)sc2c1=O` (centres undefined), the RP-LC retention time is 643 s. `CC(C)C(=O)Nc1ccc2nc(N3CCN(c4ccccc4F)CC3)cc(C(=O)O)c2c1` yielded an RP-LC retention time of 664 s. The value for `COc1ccc(-c2cc(C)no2)cc1S(=O)(=O)N1CCN(c2ccccn2)CC1` was 651 s. With `Fc1ccc(-c2noc(Cn3ccnc3)n2)cc1Br`, the RP-LC retention time amounted to 650 s. For `COc1ccc(N2CCN(C(=O)CCN3C(=O)C4C5C=CC(C5)C4C3=O)CC2)cc1` (centres undefined), the RP-LC retention time was 650 s. In the case of `CCNc1cc(N2CCCC(CCC(=O)NC(C)c3cn(C)nc3C)C2)ncn1` (centres undefined), the RP-LC retention time came out at 592 s. `CCN(CC)c1nc(C(=O)NCCN2CCOCC2)nc2nc(C)cc(C)c12` yielded an RP-LC retention time of 558 s. Consider `Cc1ccc(Nc2c(-c3ccc(Cl)cc3)nc3ncccn23)cc1Cl`, for which the RP-LC retention time worked out at 1020 s.

In turn, `CCOC(=O)C(C)Sc1nnc2n1CCN2c1ccc(OC)cc1` (centres undefined) displayed an RP-LC retention time of 741 s. `Fc1ccc(-n2cc(-c3noc(-c4cccc(F)c4)n3)nn2)cc1` yielded an RP-LC retention time of 1050 s. `CCc1nnc2ccc(-c3noc(Cc4cccc(Cl)c4)n3)cn12` came in with an RP-LC retention time of 896 s.

`O=C(Nc1ccc2c(c1)OCO2)C1CCN(C(=O)c2cccc(F)c2)CC1`: the RP-LC retention time worked out at 753 s.

As to `Cc1ccc(N2CC(c3noc(-c4ccc(F)cc4Cl)n3)CC2=O)cc1` (centres undefined), the RP-LC retention time turned out to be 1060 s. The value for `COCc1cc(=O)n(CC(=O)Nc2cc(C)ccc2C)c(N2CCOCC2)n1` was 844 s; that for `COCCNC(=O)NCCS(=O)(=O)N1CCN(c2cccc(C)c2)CC1` was 661 s; that for `O=C(C1CCCO1)N1CCN(c2nc3cccnc3n(Cc3ccccc3)c2=O)CC1` (centres undefined) was 856 s. For the compound `Cc1nnc2sc(SCC(=O)Nc3cccc(C(F)(F)F)c3)nn2c1=O`, the RP-LC retention time worked out at 759 s.

As for `Cc1ccc(-c2ccc(-n3nc(C)c(S(=O)(=O)Nc4ccc5c(c4)OCCO5)c3C)nn2)cc1`, the RP-LC retention time came out at 1010 s. The figure for `O=C(NCCC1CCN(S(=O)(=O)c2ccc(F)cc2)CC1)NC1CCCCC1` is 890 s; for `CCCCn1cc(S(=O)(=O)Nc2ccc(CC)cc2)c2cccnc21` it is 1040 s.

`O=C(NCC1CN(c2ccc3c(c2)OCO3)C(=O)O1)Nc1ccccc1C(F)(F)F` (centres undefined) returned an RP-LC retention time of 768 s. Compound `CSc1cccc(NC(=O)N(C)Cc2nc3cc(C(=O)N(C)C)ccc3n2C)c1` gave an RP-LC retention time of 626 s.

The compound `Cc1c(S(=O)(=O)N2CCCC(C)C2)c(C)n(C)c1C(=O)Nc1cccc(F)c1` (centres undefined) gave an RP-LC retention time of 1100 s. Compound `Cc1ccc(CNC(=O)C2(C)CCCN(C(=O)NCCc3ccccc3)C2)cc1` (centres undefined) registered an RP-LC retention time of 912 s. For `O=C(O)c1cnc(NCc2cccnc2)nc1-c1cccnc1`, the RP-LC retention time was 875 s. Compound `CN1C(=O)c2cc(C(=O)NCc3ccc(Cl)cc3)nn2CC1(C)C(=O)NC1CCCCC1` (centres undefined) returned an RP-LC retention time of 850 s. `O=C(Cc1cccn1-c1ccc(Cl)cc1)NCc1ccc(N2CCOCC2)cc1` displayed an RP-LC retention time of 886 s. The value for `CCn1cc(S(=O)(=O)NCc2ccc(C)cc2)c2cccnc21` was 900 s; that for `CCc1ccccc1NC(=O)C1CCN(S(C)(=O)=O)c2cc(Cl)ccc2O1` (centres undefined) was 944 s.

As for `CCOc1ccccc1CNC(=O)C1CCCN(c2nn3c(=O)c4c(nc3s2)CCCC4)C1` (centres undefined), the RP-LC retention time was 831 s.

Compound `COC(=O)C1=CN(C2CC2)c2cc(N3CCN(C(C)C)CC3)c(F)cc2S1(=O)=O` returned an RP-LC retention time of 740 s. On to `CCN(CC)c1ncc2c(n1)CCC(C(=O)NCc1nc3ccccc3n1C)C2` (centres undefined), for which the RP-LC retention time turned out to be 537 s. The figure for `Cc1cc(C)c2sc(N3CCN(C(=O)C4CCCN(S(C)(=O)=O)C4)CC3)nc2c1` (centres undefined) is 787 s.

`COc1ccc(C2Cn3nnc(-c4nc(-c5ccccc5OC)no4)c3CO2)cc1` (centres undefined): the RP-LC retention time amounted to 1010 s. For `Clc1ccc(-c2nnc(-c3cccnc3N3CCC4(CC3)OCCO4)o2)cc1`, the RP-LC retention time came out at 1010 s. As for `COc1ccc(-c2noc(CCc3nnc4ccc(N5CCN(C6CCCCC6)CC5)nn34)n2)cc1`, the RP-LC retention time came out at 646 s. Compound `Cc1cc(-c2nnc(-c3ccco3)o2)c(C)n1CC(=O)NCc1cc(F)cc(F)c1` yielded an RP-LC retention time of 852 s. With `CC1(C(=O)NC2CCCCCC2)CN(S(C)(=O)=O)CC(=O)N1Cc1cccc(F)c1` (centres undefined), the RP-LC retention time is 885 s. The compound `CCC(=O)Nc1ccc(CCc2nc3ccc(C(=O)NC(C)C)cc3[nH]2)cc1` displayed an RP-LC retention time of 813 s.

Compound `CC(C)CC(=O)N1CCN(c2nc(CN3CCC(C)CC3)cs2)CC1` displayed an RP-LC retention time of 634 s.

In turn, `Cc1nc(-c2ccc(NC(=O)N3CCCc4ccccc43)cc2)no1` yielded an RP-LC retention time of 900 s.

Consider `Nc1nnc(CCS(=O)(=O)c2ccccc2)o1`, for which the RP-LC retention time was found to be 565 s. The figure for `Cc1ccc(C(C)NC(=O)c2cccc(C3CCCN(C(=O)NC(C)C)C3)c2)c(C)c1` (centres undefined) is 969 s.

With `Cc1ccccc1Cn1c(CN2CCC(C(=O)NC3CCCCCCC3)CC2)cc2ccccc21`, the RP-LC retention time is 934 s.

`COc1ccccc1CNS(=O)(=O)c1cc2c(s1)CCN(C(=O)C1CCC1)C2` showed an RP-LC retention time of 877 s. In turn, `COc1ccc(C2=NC(c3ccc(Cl)cc3)C(c3ccc(Cl)cc3)N2C(=O)N2CCNC(=O)C2)c(OC(C)C)c1` (centres undefined) yielded an RP-LC retention time of 887 s. The compound `CCC(C)C(=O)N1CCCN(C2=NS(=O)(=O)C(c3ccc(C)cc3)=C2C)CC1` (centres undefined) came in with an RP-LC retention time of 828 s. In turn, `O=C(NCc1nc(-c2cccc(-c3csc(C4CC4)n3)c2)no1)c1ccccc1` gave an RP-LC retention time of 1030 s. For `CCc1ccc(S(=O)(=O)Nc2ccc(N3CCCN(C)CC3)cc2C(=O)O)cc1`, the RP-LC retention time was 650 s. Compound `CCc1nn2c(CNC(=O)c3cccc(Br)c3)c(-c3ccccc3)nc2s1` returned an RP-LC retention time of 1030 s.
